Measurements taken from ChEMBL document CHEMBL1201862, “PubChem BioAssay data set” (2004).
One block for each molecule: values may come before it. Activity calls are given as the source filed them.

Tests used:
[1] = target: T1, Sphingosine 1-phosphate receptor 4 (Homo sapiens, UniProt O95977); experiment: Fluorescence dose response cell-based high throughput screening assay for antagonists of the Sphingosine 1-Phosphate Receptor 4 (S1P4). [Related pubchem assays: 1524 (Confirmation in triplicates.), 1510 (Primary screen.)]; type: functional
T1 sequence (O95977 whole entry): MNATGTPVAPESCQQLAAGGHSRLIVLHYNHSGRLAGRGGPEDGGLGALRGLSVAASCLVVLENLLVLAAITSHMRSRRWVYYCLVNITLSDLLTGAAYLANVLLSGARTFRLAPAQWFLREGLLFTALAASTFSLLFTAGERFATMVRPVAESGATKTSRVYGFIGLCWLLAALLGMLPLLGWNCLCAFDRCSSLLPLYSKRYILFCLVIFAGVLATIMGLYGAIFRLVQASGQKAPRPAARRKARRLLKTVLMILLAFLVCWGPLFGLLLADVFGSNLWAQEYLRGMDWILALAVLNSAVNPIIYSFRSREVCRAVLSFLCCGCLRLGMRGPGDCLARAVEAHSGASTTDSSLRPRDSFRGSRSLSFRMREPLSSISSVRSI

Beta Lactamase [2] = target: T2, Beta Lactamase (Pseudomonas aeruginosa, UniProt Q932Y6); experiment: beta-lactamase reporter inhibitor potency, dose response, artefact control for TLR9-MyD88 binding inhibitor project, BLA reporter cells, FRET fluorescence (AID 588341); type: cell-based;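 note: cell based assay in CHO-K1 cells stably expressing beta-lactamase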
Exodeoxyribonuclease V = target: T3, Exodeoxyribonuclease V (Escherichia coli (strain K12), UniProt P04993+P07648+P08394); experiment: E. coli RecBCD inhibitors, dose response, counter-screen for AddAB inhibitor project, absorbance, V66 E. coli, mutant T4 phage (AID 492957); type: functional, cell-based, Escherichia coli str. K-12 substr. MG1655
T3 sequence (P04993 whole entry): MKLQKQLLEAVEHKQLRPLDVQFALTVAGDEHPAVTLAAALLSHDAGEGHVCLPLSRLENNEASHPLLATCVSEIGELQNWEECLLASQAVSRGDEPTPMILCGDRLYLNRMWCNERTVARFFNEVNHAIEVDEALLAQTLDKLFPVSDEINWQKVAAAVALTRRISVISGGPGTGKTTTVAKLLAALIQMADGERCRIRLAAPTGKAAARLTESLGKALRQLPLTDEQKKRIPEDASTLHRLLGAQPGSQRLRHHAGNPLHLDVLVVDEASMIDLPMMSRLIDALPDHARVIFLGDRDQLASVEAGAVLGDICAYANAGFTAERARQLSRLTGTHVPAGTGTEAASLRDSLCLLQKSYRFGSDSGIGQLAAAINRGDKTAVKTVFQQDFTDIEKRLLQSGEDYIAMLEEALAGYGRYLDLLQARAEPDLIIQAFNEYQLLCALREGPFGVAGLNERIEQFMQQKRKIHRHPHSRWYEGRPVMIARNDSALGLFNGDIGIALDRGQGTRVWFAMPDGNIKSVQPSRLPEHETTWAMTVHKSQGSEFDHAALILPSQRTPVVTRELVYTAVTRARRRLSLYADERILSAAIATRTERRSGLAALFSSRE
T3 sequence (P07648 whole entry): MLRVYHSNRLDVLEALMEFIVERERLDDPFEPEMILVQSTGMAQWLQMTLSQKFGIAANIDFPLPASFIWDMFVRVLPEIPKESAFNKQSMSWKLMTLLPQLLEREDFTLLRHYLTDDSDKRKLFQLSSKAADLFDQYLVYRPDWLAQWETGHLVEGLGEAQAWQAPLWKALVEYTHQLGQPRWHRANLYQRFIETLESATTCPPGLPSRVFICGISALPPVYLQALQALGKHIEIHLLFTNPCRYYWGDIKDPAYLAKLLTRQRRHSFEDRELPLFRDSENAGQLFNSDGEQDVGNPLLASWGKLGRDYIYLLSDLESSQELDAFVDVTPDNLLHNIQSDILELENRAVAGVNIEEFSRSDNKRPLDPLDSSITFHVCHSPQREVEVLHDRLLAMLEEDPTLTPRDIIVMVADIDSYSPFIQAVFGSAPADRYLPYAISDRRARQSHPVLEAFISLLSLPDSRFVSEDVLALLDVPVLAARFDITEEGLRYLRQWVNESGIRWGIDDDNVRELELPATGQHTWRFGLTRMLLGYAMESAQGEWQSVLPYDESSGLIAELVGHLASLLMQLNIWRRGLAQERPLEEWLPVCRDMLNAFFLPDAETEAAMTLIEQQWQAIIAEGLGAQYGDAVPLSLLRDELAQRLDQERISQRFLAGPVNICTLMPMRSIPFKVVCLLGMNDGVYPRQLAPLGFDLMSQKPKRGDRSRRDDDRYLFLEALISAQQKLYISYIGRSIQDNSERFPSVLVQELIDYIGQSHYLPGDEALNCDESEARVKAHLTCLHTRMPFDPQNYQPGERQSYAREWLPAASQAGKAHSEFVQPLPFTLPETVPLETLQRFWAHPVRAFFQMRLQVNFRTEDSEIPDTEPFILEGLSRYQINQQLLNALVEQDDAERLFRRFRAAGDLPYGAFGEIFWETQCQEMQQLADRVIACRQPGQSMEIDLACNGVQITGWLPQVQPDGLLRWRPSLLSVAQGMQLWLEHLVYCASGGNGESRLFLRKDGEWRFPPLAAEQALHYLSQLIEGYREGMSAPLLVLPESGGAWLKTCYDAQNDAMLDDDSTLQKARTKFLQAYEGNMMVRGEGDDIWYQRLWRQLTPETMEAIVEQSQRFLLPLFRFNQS
T3 sequence (P08394 whole entry): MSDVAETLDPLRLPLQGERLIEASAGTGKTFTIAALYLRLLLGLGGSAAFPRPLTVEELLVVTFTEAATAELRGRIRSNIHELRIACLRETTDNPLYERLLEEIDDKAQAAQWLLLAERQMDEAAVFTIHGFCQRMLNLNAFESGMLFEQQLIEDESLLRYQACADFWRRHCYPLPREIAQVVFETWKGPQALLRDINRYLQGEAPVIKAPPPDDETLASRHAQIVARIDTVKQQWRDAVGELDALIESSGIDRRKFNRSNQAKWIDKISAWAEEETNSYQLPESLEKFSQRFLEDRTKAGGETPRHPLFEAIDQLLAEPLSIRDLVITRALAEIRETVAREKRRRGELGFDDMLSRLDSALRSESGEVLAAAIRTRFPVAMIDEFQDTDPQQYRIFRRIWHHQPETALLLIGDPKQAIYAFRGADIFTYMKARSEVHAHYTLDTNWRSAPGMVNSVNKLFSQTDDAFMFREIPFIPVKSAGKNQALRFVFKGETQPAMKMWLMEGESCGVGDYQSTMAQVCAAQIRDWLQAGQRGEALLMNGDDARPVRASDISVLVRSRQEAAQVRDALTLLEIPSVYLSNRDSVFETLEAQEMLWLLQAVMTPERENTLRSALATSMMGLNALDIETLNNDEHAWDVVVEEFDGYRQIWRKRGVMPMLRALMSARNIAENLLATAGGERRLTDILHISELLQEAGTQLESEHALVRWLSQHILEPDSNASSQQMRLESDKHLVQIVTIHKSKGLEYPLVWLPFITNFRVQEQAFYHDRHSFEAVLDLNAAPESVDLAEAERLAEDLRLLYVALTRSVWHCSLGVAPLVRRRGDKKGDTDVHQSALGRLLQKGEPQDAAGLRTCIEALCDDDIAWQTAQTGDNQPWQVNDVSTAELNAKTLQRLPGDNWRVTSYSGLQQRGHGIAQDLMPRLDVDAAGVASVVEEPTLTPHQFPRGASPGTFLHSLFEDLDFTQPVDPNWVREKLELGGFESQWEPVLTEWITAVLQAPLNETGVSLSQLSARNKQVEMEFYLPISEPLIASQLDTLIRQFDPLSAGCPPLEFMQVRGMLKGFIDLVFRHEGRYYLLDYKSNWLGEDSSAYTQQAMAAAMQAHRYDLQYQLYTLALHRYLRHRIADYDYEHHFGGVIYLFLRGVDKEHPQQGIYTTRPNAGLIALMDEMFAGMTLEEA

[3] = target: Sphingosine 1-phosphate receptor 1 (Homo sapiens, UniProt P21453); type: functional;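 note: Tango beta-arrestin reporter U2OS cells stimulated with S1P near its EC80; inhibitor potency meaning antagonism of receptor activation by the natural agonist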
Keap1/Nrf2 = Keap1/Nrf2 (Homo sapiens, UniProt Q14145); experiment: Keap1-Nrf2 protein-protein interaction inhibitors, dose response, biochemical, fluorescence polarization, cherry-picked samples (AID 588683)
Beta Lactamase [4] = target: T2, Beta Lactamase; experiment: beta-lactamase reporter inhibitor potency, dose response, artefact control for NOD2-RIPK2 interaction inhibitor project, BLA reporter cells, FRET fluorescence (AID 651552); type: functional, cell-based
HeLa = experiment: HeLa cell cytotoxicity, dose response, cytotoxicity control, 24 h, cherry-picked samples (AID 504726); type: functional, cell-based; conditions: Homo sapiens;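 note: potency for cytotoxicity as loss of luminescence signal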
[5] = human group III sPLA2 inhibitors, dose response, biochemical, QFRET, IC50 (AID 743457);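 note: green fluorescence rise as the enzyme cleaves BODIPY PC-A2 in liposomes; potency for inhibition of the enzyme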
[6] = target: T4, Alkaline phosphatase, tissue-nonspecific isozyme (Homo sapiens, UniProt P05186)
T4 sequence (P05186 whole entry): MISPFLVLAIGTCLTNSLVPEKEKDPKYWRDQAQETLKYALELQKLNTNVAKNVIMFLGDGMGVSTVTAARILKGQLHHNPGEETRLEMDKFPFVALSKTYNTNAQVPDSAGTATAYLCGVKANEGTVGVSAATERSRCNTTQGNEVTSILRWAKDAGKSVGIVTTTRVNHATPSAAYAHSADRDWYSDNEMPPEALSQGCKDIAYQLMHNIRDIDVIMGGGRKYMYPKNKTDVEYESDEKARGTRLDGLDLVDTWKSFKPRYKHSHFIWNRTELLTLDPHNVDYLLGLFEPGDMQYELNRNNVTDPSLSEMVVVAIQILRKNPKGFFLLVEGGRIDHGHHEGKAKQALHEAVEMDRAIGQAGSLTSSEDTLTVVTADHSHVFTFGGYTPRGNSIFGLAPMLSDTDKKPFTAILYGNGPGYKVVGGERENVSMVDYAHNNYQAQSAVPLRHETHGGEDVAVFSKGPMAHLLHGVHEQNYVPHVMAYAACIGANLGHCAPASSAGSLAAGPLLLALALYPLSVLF

[7] = inhibitors of Bluetongue virus cytopathic effect, confirmation, arbovirus, BSR cells (AID 1250); type: functional;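 note: protection from viral cytopathic effect measured as cell viability by ATP luminescence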
[8] = target: FAD-linked sulfhydryl oxidase ALR (Homo sapiens, UniProt P55789); experiment: inhibitors of human ALR sulfhydryl oxidase, dose response, biochemical, H2O2 detection, luminescence, cherry-pick (AID 493248)
Vero = experiment: Vero E6 cell cytotoxicity, SAR follow-up, cytotoxicity control for West Nile virus antiviral project, synthesized analogs (AID 2244); type: functional; conditions: Chlorocebus sabaeus
Insulin-degrading enzyme = Insulin-degrading enzyme (Homo sapiens, UniProt P14735); experiment: Dose Response: Fluorescence polarization-based cell-based high throughput dose response assay for inhibitors of insulin-degrading enzyme (IDE). [Related pubchem assays: 434962 (Primary screen (IDE inhibitors in singlicate)), 449730 (Counterscreen (Cytotoxicity in triplicate)), 435028 (Confirmation (IDE inhibitors in triplicate)), 434984 (Summary …; type: functional
[9] = Counterscreen for IDE inhibitors: Luminescence-based cell-based high throughput dose response assay to identify compounds that are cytotoxic to HEK cells. [Related pubchem assays: 434962 (Primary screen (IDE inhibitors in singlicate)), 449730 (Counterscreen (Cytotoxicity in triplicate)), 435028 (Confirmation (IDE inhibitors in triplicate)) …; type: functional; conditions: HEK293

T2 sequence (Q932Y6 whole entry): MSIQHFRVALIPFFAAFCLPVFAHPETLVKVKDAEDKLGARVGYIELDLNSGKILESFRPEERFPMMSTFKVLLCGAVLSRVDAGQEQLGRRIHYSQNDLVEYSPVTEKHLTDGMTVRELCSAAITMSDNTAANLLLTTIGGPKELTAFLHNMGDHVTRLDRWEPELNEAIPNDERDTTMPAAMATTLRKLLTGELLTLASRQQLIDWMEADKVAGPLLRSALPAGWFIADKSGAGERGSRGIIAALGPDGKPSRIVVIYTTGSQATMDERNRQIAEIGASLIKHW
Sequence of Sphingosine 1-phosphate receptor 1 (P21453 whole entry): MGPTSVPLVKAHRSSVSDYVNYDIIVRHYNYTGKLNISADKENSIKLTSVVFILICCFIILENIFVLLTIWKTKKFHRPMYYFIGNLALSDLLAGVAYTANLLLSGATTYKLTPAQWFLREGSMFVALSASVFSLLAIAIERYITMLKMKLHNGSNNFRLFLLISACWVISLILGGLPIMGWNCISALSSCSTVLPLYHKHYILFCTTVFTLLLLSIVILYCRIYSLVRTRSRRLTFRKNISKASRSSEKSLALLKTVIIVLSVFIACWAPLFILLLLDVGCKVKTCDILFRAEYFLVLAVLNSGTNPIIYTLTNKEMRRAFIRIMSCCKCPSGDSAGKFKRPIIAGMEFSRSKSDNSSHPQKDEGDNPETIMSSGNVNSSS
Sequence of Insulin-degrading enzyme (P14735 whole entry): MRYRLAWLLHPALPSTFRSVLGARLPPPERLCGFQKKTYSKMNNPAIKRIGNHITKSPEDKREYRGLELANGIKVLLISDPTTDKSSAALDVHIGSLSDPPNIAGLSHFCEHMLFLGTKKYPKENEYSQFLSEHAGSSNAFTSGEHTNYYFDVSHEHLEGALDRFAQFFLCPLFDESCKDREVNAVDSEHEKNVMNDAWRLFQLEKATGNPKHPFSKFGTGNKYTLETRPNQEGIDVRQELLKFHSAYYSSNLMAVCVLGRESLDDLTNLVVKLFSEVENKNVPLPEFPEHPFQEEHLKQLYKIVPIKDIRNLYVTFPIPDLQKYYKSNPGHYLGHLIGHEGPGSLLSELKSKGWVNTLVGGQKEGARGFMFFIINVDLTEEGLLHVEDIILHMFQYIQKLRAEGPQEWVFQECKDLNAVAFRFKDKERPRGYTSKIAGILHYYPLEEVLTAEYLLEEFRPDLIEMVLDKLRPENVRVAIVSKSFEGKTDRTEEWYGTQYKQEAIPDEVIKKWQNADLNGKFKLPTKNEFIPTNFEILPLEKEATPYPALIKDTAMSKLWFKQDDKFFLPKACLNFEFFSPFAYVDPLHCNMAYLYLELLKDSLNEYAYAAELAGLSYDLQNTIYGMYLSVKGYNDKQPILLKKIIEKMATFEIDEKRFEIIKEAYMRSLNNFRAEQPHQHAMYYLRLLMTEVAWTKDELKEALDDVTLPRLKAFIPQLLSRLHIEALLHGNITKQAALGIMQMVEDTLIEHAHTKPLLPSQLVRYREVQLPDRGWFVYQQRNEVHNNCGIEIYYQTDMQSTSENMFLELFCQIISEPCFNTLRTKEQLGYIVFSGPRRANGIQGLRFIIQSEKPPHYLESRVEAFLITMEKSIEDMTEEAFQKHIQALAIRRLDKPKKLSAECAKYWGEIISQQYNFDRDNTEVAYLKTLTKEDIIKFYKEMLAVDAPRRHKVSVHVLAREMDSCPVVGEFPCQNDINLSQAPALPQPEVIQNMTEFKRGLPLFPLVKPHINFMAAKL
Sequence of Keap1/Nrf2 (Q16236 whole entry): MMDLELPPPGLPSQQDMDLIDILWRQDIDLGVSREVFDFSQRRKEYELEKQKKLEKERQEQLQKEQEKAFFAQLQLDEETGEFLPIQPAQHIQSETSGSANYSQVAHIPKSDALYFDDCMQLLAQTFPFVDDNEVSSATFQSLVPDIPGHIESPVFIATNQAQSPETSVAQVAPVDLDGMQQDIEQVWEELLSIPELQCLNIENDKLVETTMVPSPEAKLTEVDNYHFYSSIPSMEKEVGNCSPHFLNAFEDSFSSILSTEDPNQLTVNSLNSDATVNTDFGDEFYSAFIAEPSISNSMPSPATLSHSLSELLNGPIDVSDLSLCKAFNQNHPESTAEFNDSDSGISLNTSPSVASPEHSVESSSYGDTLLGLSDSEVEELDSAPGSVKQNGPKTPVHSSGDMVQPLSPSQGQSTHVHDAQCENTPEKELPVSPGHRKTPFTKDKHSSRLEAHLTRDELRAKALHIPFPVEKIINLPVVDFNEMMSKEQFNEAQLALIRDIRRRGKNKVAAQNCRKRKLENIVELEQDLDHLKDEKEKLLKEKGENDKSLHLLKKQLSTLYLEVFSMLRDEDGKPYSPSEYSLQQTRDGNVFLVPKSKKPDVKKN
Sequence of Keap1/Nrf2 (Q14145 whole entry): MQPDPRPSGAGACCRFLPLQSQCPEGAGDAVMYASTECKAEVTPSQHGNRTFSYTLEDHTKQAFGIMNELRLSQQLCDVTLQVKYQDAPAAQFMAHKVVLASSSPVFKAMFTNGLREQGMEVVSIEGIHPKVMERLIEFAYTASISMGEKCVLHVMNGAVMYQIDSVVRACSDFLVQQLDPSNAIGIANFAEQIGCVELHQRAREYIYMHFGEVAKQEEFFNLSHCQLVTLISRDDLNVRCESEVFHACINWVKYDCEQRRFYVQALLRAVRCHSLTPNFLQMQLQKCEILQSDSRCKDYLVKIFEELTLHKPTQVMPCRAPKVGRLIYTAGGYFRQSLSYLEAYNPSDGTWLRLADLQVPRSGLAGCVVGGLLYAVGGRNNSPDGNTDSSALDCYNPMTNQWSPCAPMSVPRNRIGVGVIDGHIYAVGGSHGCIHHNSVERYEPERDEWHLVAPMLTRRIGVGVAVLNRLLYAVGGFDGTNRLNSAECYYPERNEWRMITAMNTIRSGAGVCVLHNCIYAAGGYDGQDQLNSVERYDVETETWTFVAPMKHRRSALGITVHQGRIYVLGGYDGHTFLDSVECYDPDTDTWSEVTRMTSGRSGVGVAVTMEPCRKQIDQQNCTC
Sequence of FAD-linked sulfhydryl oxidase ALR (P55789 whole entry): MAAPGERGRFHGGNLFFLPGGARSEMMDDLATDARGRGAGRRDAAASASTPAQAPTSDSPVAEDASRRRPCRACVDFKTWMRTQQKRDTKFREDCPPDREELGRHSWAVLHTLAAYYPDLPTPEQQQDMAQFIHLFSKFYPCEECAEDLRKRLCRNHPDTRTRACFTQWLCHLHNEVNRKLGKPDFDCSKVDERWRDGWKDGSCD

Structure (SMILES): C=CCn1c(Sc2ncc([N+](=O)[O-])s2)n[nH]c1=O
IC50 [1]: 2.63 µM (active) | IC50 (Beta Lactamase [2]): > 49.8 µM (inactive) | IC50 (Exodeoxyribonuclease V): 77.2 µM (inactive) | IC50 [3]: 18.1 µM (not active) | AC50 (Keap1/Nrf2): > 52 µM (inactive) | IC50 (Beta Lactamase [4]): 42 µM (inactive)

Structure (SMILES): NNc1nc2sc3c(c2c(=O)n1C1CCCCC1)CCN(Cc1ccccc1)C3
AC50 (HeLa): 46 µM (active)

IC50 [5]: > 122 µM (inactive) | EC50 [6]: 61 µM (not active)
Structure (SMILES): Cc1ccc(NC(S)=NNC(=O)c2nn(C)cc2Cl)cc1

IC50 [7]: 23.5 µM (active) | AC50 [8]: 0.84 µM (active)
Structure (SMILES): CCN(CC)c1ccc(NC(=O)c2c(OC)cccc2OC)c(C)c1

Structure (SMILES): COc1ccc(-c2csc(NC(=O)c3ccccc3Cl)n2)cc1
CC50 (Vero): > 40 µM (active)

Structure (SMILES): O=C(N/N=C/c1cccnc1)c1cccc(NC(=O)c2cccc(Br)c2)c1
IC50 (Insulin-degrading enzyme): 21.9 µM (not active) | IC50 [9]: 53.6 µM (not active)
